Results taken from patent US20210007350A1, “USE OF A FUNGICIDAL COMPOSITION AS TREATMENT FOR POWDERY MILDEW” (DESARROLLO AGRICOLA Y MINERO, S.A., priority 2017, published 2021).

Tested on: powdery mildew (Sphaerotheca macularis)
Assay: Control of powdery mildew in greenhouse strawberry cultivation (field efficacy trial)
Assay type: in vivo
Conditions: Myclobutanil 20 g/l, dose 30 ml/hl
Experimental: To reflect the efficacy of the invention presented in this description, comparative studies were performed in commercial conditions. Thus, commercial application of the present fungicidal composition is carried out by ground spraying with manual sprayers, motor pumps, or other similar means. The invention is further characterised by a specific use with a product application dose of between 0.05 l/hl and 0.5 l/hl, and preferably between 0.2 l/hl and 0.3 l/hl of the composition described herein.
The conditions of the application solution will be those normally used for the crops described. The following examples show the spraying case.
Example 1: Application of the Fungicidal Composition for the Control of Powdery Mildew (Sphaerotheca macularis) in Strawberries
The aim of the protocol was to evaluate the effect of the fungicidal composition applied in different doses for the control of powdery mildew (Sphaerotheca macularis) in greenhouse strawberry cultivation and compare its efficacy against that of a standard chemical phytosanitary product such as myclobutanil. Location: Almeria (Spain). Variety: Benicia.
Untreated control specimen
Myclobutanil 20 g/l, dose 30 ml/hl
Fungicidal composition, dose 0.2l/hl
Fungicidal composition, dose 0.3l/hl
Number of applications: 4
Use of solution: 1000 l/ha.
Parameters evaluated: Efficacy.
Efficacy data were taken at the following times.
T0: 0, before first application.
T1: 10 days after the first application and just before the second application.
T2: 9 days after the second application and just before the third application.
T3: 9 days after the third application and just before the fourth application
T4: 7 days after the fourth application.

With `CCCCC(C#N)(Cn1cncn1)c1ccc(Cl)cc1` (centres unmarked) [Myclobutanil, myclobutanil] the “efficacy % (T0)” value (T0: before first application, strawberry var. Benicia, greenhouse) was 0%, the “efficacy % (T1)” value (T1: 10 days after the first application) was 92.4% and the “efficacy % (T2)” value (T2: 9 days after the second application) was 97.0%. The “efficacy % (T3)” value (T3: 9 days after the third application) was 95.8% and the “efficacy % (T4)” value (T4: 7 days after the fourth application) was 98.3%.
